Results reported in ChEMBL document CHEMBL1201862, “PubChem BioAssay data set” (2004).
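Test compounds were applied to cells in 96-well plates for 48 hours at 5 doses. GI50 = concentration required for 50% inhibition of growth.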 Active and inactive are the calls of the source. Rule as the data show it: active = GI50 up to about 1.1 µM and inactive = higher.

Assays:
Assay in all cases: NCI anticancer screen, dose series, 48 h
[1] = system: SK-OV-3
[2] = system: NCI-H23
[3] = system: SN12C
[4] = system: COLO 205
[5] = system: HOP-92
[6] = system: K562
[7] = system: ACHN
[8] = system: DLD-1
[9] = system: RPMI-8226
[10] = system: SF-295
[11] = system: SNB-19
[12] = system: HCT-116
[13] = system: SK-MEL-28
[14] = system: A549
[15] = system: Malme-3M
[16] = system: OVCAR-4
[17] = system: A498
[18] = system: SF-539
[19] = system: MDA-MB-231
[20] = system: MCF7

| SMILES | GI50 [1] | GI50 [2] | GI50 [3] | GI50 [4] | GI50 [5] | GI50 [6] | GI50 [7] | GI50 [8] | GI50 [9] | GI50 [10] | GI50 [11] | GI50 [12] | GI50 [13] | GI50 [14] | GI50 [15] | GI50 [16] | GI50 [17] | GI50 [18] | GI50 [19] | GI50 [20] |
| --- | --- | --- | --- | --- | --- | --- | --- | --- | --- | --- | --- | --- | --- | --- | --- | --- | --- | --- | --- | --- |
| COCN1COCN/C1=N\C#N | > 100 µM (inactive) | > 100 µM (inactive) | > 100 µM (inactive) | 41 µM (inactive) | > 100 µM (inactive) | 88.3 µM (inactive) | > 100 µM (inactive) | > 100 µM (inactive) | > 100 µM (inactive) | > 100 µM (inactive) | > 100 µM (inactive) | > 100 µM (inactive) | > 100 µM (inactive) | > 100 µM (inactive) | > 100 µM (inactive) | 75.5 µM (inactive) | > 100 µM (inactive) | > 100 µM (inactive) | – | – |
| CCCCCCCCC/C=C/C=C/C(=O)NCC(=O)NC1C(O)C(O)C(Nc2ncnc3[nH]cnc23)OC1C(O)CO (stereo not drawn) | 0.001 µM (active) | 0.00869 µM (active) | 0.0136 µM (active) | 0.001 µM (active) | 0.00468 µM (active) | 0.063 µM (active) | 0.00953 µM (active) | 0.0655 µM (active) | 0.0018 µM (active) | 0.00796 µM (active) | 0.00175 µM (active) | 0.00323 µM (active) | 0.0695 µM (active) | 0.00397 µM (active) | 0.00242 µM (active) | 0.00115 µM (active) | 0.00468 µM (active) | 0.00448 µM (active) | 0.0538 µM (active) | 0.668 µM (active) |
| CCOc1ccccc1NC(=O)CCc1nnc2s/c(=C\CCc3ccccc3)c(=O)n12 | > 100 µM (inactive) | > 100 µM (inactive) | > 100 µM (inactive) | > 100 µM (inactive) | > 100 µM (inactive) | > 100 µM (inactive) | > 100 µM (inactive) | > 100 µM (inactive) | > 100 µM (inactive) | > 100 µM (inactive) | > 100 µM (inactive) | > 100 µM (inactive) | > 100 µM (inactive) | > 100 µM (inactive) | > 100 µM (inactive) | > 100 µM (inactive) | > 100 µM (inactive) | > 100 µM (inactive) | – | – |
| Nc1ccc(-c2cc(C(=O)Nc3nccs3)nc(S)n2)cc1 | > 100 µM (inactive) | > 100 µM (inactive) | > 100 µM (inactive) | > 100 µM (inactive) | > 100 µM (inactive) | > 100 µM (inactive) | > 100 µM (inactive) | > 100 µM (inactive) | > 100 µM (inactive) | – | > 100 µM (inactive) | > 100 µM (inactive) | > 100 µM (inactive) | > 100 µM (inactive) | > 100 µM (inactive) | > 100 µM (inactive) | > 100 µM (inactive) | > 100 µM (inactive) | – | – |
| CC[C@]1(O)C[C@H]2CN(CCc3c([nH]c4ccccc34)[C@@](C(=O)OC)(c3cc4c(cc3OC)N(C)[C@H]3[C@@](O)(C(=O)OC)[C@H](OC(C)=O)[C@]5(CC)C=CCN6CC[C@]43[C@@H]65)C2)C1 | 0.000867 µM (active) | 0.000678 µM (active) | 0.00132 µM (active) | 0.000435 µM (active) | 0.00227 µM (active) | 0.000508 µM (active) | 0.00849 µM (active) | 0.00433 µM (active) | 0.000679 µM (active) | 0.000492 µM (active) | 0.00115 µM (active) | 0.000481 µM (active) | 0.00165 µM (active) | 0.00157 µM (active) | 0.000557 µM (active) | 0.136 µM (active) | 0.00252 µM (active) | 0.000605 µM (active) | 0.000991 µM (active) | 0.00045 µM (active) |
| N#CC1(C2SCC[S+]2[O-])C2=C(C(=O)c3ccccc3C2=O)N2CCCC21 (stereo not drawn) | 15.3 µM (inactive) | 1.11 µM (active) | 2.38 µM (inactive) | 2.24 µM (inactive) | 3.85 µM (inactive) | 3.38 µM (inactive) | 5.52 µM (inactive) | 2.74 µM (inactive) | 1.05 µM (active) | 1.99 µM (inactive) | 6.35 µM (inactive) | 2 µM (inactive) | 2.85 µM (inactive) | 2.1 µM (inactive) | 0.381 µM (active) | 1.7 µM (inactive) | 4.07 µM (inactive) | 3 µM (inactive) | 2.17 µM (inactive) | 1.63 µM (inactive) |
| CN1C(=O)N(C)C(N2CCCC2)c2c1nc1ccccn1c2=O (stereo not drawn) | 78.5 µM (inactive) | > 100 µM (inactive) | 54.3 µM (inactive) | > 100 µM (inactive) | 42.7 µM (inactive) | 53.1 µM (inactive) | > 100 µM (inactive) | 35.3 µM (inactive) | 88.7 µM (inactive) | > 100 µM (inactive) | 99.5 µM (inactive) | 60.4 µM (inactive) | > 100 µM (inactive) | > 100 µM (inactive) | > 100 µM (inactive) | 58.1 µM (inactive) | 34.8 µM (inactive) | 33.3 µM (inactive) | – | – |
| O=C1C=CC(S(=O)(=O)C2=C/C(=C/Nc3ccc(Cl)cc3)C(=O)C=C2)=C/C1=C/Nc1ccc(Cl)cc1 | > 100 µM (inactive) | > 100 µM (inactive) | > 100 µM (inactive) | > 100 µM (inactive) | > 100 µM (inactive) | > 100 µM (inactive) | > 100 µM (inactive) | > 100 µM (inactive) | > 100 µM (inactive) | > 100 µM (inactive) | > 100 µM (inactive) | > 100 µM (inactive) | > 100 µM (inactive) | > 100 µM (inactive) | > 100 µM (inactive) | > 100 µM (inactive) | > 100 µM (inactive) | > 100 µM (inactive) | – | – |
| COC(=O)C(=O)Cc1nc2ccccc2s1 | > 100 µM (inactive) | > 100 µM (inactive) | > 100 µM (inactive) | > 100 µM (inactive) | > 100 µM (inactive) | > 100 µM (inactive) | > 100 µM (inactive) | > 100 µM (inactive) | – | > 100 µM (inactive) | > 100 µM (inactive) | > 100 µM (inactive) | > 100 µM (inactive) | > 100 µM (inactive) | > 100 µM (inactive) | > 100 µM (inactive) | > 100 µM (inactive) | > 100 µM (inactive) | – | – |
| N#C/N=C(/N)NCc1ccccc1 | > 100 µM (inactive) | > 100 µM (inactive) | > 100 µM (inactive) | > 100 µM (inactive) | > 100 µM (inactive) | – | > 100 µM (inactive) | > 100 µM (inactive) | > 100 µM (inactive) | > 100 µM (inactive) | – | > 100 µM (inactive) | > 100 µM (inactive) | > 100 µM (inactive) | > 100 µM (inactive) | > 100 µM (inactive) | > 100 µM (inactive) | > 100 µM (inactive) | – | – |
| Nc1nc(-c2ccccc2)c(Cl)c(-c2cc(Cl)ccc2O)n1 | 17.3 µM (inactive) | 15.8 µM (inactive) | 25.4 µM (inactive) | > 100 µM (inactive) | 39.5 µM (inactive) | > 46.5 µM (inactive) | 8.89 µM (inactive) | 26.3 µM (inactive) | > 86.7 µM (inactive) | 48.4 µM (inactive) | 19.2 µM (inactive) | 13.4 µM (inactive) | 91.2 µM (inactive) | 19.5 µM (inactive) | > 77.1 µM (inactive) | 15.3 µM (inactive) | 34.6 µM (inactive) | 25.1 µM (inactive) | 48.5 µM (inactive) | 2.04 µM (inactive) |
| Cc1ccc(S(=O)(=O)NC(C)C(=O)O)cc1 (stereo not drawn) | > 100 µM (inactive) | > 100 µM (inactive) | > 100 µM (inactive) | > 100 µM (inactive) | > 100 µM (inactive) | – | > 100 µM (inactive) | > 100 µM (inactive) | > 100 µM (inactive) | > 100 µM (inactive) | > 100 µM (inactive) | – | > 100 µM (inactive) | > 100 µM (inactive) | > 100 µM (inactive) | > 100 µM (inactive) | > 100 µM (inactive) | > 100 µM (inactive) | – | – |
